Assay results: paper PMC7585386 (ACS chemical biology, 2020)

Target: calcium-dependent protein kinase 1 (CDPK1, CDPK1^G; TGGT1_301440) (Toxoplasma gondii, UniProt Q9BJF5)
Assay: kinase assay with recombinant purified enzyme in excess calcium
Assay type: biochemical

## Cc1cccc(Cc2nn(C(C)(C)C)c3ncnc(N)c23)c1 [3-MB, 3-MB-PP1]
  IC50: 79 nM
